# Literature values, collected in patent US8124639B2, “Bicyclic [3.1.0] heteroaryl amides as type 1 glycine transport inhibitors” (Pfizer Inc., priority 2005, dated 2012).
# System: NMDA receptor
# Settings: effect blocked by a specific NMDA-site antagonist and a glycine-site antagonist
smiles,measurement,value
CN(CCC(Oc1ccc(-c2ccccc2)cc1)c1ccc(F)cc1)CC(=O)O (stereo not shown) [NFPS],effect on postsynaptic current driven by the NMDA receptor,increased the postsynaptic current driven by the NMDA receptor
